Laboratory results: the NIST ThermoML archive (doi:10.1016/j.jct.2010.08.010)

Settings: Liquid, Buoyancy - hydrostatic balance with magnetic suspension - one sinker

Cc1ccccc1 [toluene]
Settings	mass density [kg/m3]
233.15 K, 101.25 kPa	922.207
233.15 K, 1055.6 kPa	922.722
233.15 K, 1861.3 kPa	923.156
233.15 K, 3871.1 kPa	924.223
233.15 K, 5873.9 kPa	925.287
233.15 K, 8031.1 kPa	926.415
233.15 K, 9906.5 kPa	927.392
233.15 K, 11973 kPa	928.445
233.15 K, 13947 kPa	929.451
233.15 K, 15971 kPa	930.461
233.15 K, 18029 kPa	931.487
233.15 K, 19921 kPa	932.422
233.15 K, 22000 kPa	933.432
233.15 K, 24029 kPa	934.411
233.15 K, 25833 kPa	935.279
233.15 K, 27876 kPa	936.25
233.15 K, 29776 kPa	937.146
253.15 K, 102.01 kPa	903.705
253.15 K, 1102.6 kPa	904.316
253.15 K, 1837.1 kPa	904.762
253.15 K, 3915.8 kPa	906
253.15 K, 6024.3 kPa	907.237
253.15 K, 7905.8 kPa	908.333
253.15 K, 9884.5 kPa	909.467
253.15 K, 11995 kPa	910.665
253.15 K, 13975 kPa	911.777
253.15 K, 15951 kPa	912.877
253.15 K, 17978 kPa	913.989
253.15 K, 20022 kPa	915.098
253.15 K, 21921 kPa	916.119
253.15 K, 24088 kPa	917.274
253.15 K, 25990 kPa	918.275
253.15 K, 27827 kPa	919.23
253.15 K, 29746 kPa	920.223
273.15 K, 97.87 kPa	885.25
273.15 K, 1027.8 kPa	885.881
273.15 K, 1996.9 kPa	886.534
273.15 K, 4081.7 kPa	887.926
273.15 K, 5913.4 kPa	889.129
273.15 K, 8004.2 kPa	890.482
273.15 K, 9932.4 kPa	891.714
273.15 K, 11880 kPa	892.948
273.15 K, 13888 kPa	894.195
273.15 K, 16098 kPa	895.56
273.15 K, 18099 kPa	896.771
273.15 K, 19969 kPa	897.897
273.15 K, 21860 kPa	899.011
273.15 K, 23914 kPa	900.215
273.15 K, 25980 kPa	901.41
273.15 K, 28070 kPa	902.607
273.15 K, 30123 kPa	903.766
293.15 K, 99.87 kPa	866.733
293.15 K, 101.56 kPa	866.808
293.15 K, 1103.1 kPa	867.572
293.15 K, 1127.8 kPa	867.518
293.15 K, 1967 kPa	868.206
293.15 K, 2003.6 kPa	868.257
293.15 K, 2021.4 kPa	868.196
293.15 K, 3955.9 kPa	869.643
293.15 K, 4003.3 kPa	869.731
293.15 K, 4004.5 kPa	869.753
293.15 K, 5995 kPa	871.216
293.15 K, 6031.6 kPa	871.224
293.15 K, 6107.1 kPa	871.23
293.15 K, 8032.8 kPa	872.623
293.15 K, 8164.1 kPa	872.766
293.15 K, 8180.3 kPa	872.799
293.15 K, 9984.8 kPa	874.014
293.15 K, 10008 kPa	874.081
293.15 K, 10026 kPa	874.114
293.15 K, 12005 kPa	875.479
293.15 K, 12114 kPa	875.512
293.15 K, 12190 kPa	875.631
293.15 K, 13874 kPa	876.778
293.15 K, 13947 kPa	876.779
293.15 K, 14049 kPa	876.921
293.15 K, 15849 kPa	878.081
293.15 K, 16015 kPa	878.24
293.15 K, 16153 kPa	878.35
293.15 K, 17969 kPa	879.506
293.15 K, 18022 kPa	879.584
293.15 K, 18058 kPa	879.633
293.15 K, 19969 kPa	880.88
293.15 K, 19990 kPa	880.848
293.15 K, 20012 kPa	880.925
293.15 K, 21348 kPa	881.783
293.15 K, 21972 kPa	882.207
293.15 K, 22236 kPa	882.319
293.15 K, 23457 kPa	883.155
293.15 K, 23981 kPa	883.441
293.15 K, 24105 kPa	883.586
293.15 K, 25005 kPa	884.147
293.15 K, 25908 kPa	884.671
293.15 K, 26066 kPa	884.837
293.15 K, 27839 kPa	885.935
293.15 K, 27990 kPa	885.976
293.15 K, 28091 kPa	886.104
293.15 K, 28372 kPa	886.271
293.15 K, 29914 kPa	887.239
293.15 K, 30011 kPa	887.242
313.15 K, 100.25 kPa	848.035
313.15 K, 1103.1 kPa	848.903
313.15 K, 2030.6 kPa	849.693
313.15 K, 3897.3 kPa	851.277
313.15 K, 6141.8 kPa	853.137
313.15 K, 7925.2 kPa	854.59
313.15 K, 9859 kPa	856.142
313.15 K, 11935 kPa	857.774
313.15 K, 13950 kPa	859.327
313.15 K, 16069 kPa	860.941
313.15 K, 17874 kPa	862.289
313.15 K, 19838 kPa	863.738
313.15 K, 22114 kPa	865.383
313.15 K, 24097 kPa	866.799
313.15 K, 25913 kPa	868.068
313.15 K, 28005 kPa	869.523
313.15 K, 29966 kPa	870.863
333.15 K, 98.96 kPa	829.055
333.15 K, 1101 kPa	830.042
333.15 K, 2134.3 kPa	831.05
333.15 K, 4003.8 kPa	832.841
333.15 K, 6105.7 kPa	834.814
333.15 K, 8005 kPa	836.556
333.15 K, 9960.3 kPa	838.314
333.15 K, 12120 kPa	840.218
333.15 K, 14111 kPa	841.938
333.15 K, 15857 kPa	843.417
333.15 K, 18129 kPa	845.312
333.15 K, 19860 kPa	846.724
333.15 K, 22144 kPa	848.558
333.15 K, 24050 kPa	850.059
333.15 K, 25886 kPa	851.479
333.15 K, 28037 kPa	853.128
333.15 K, 29895 kPa	854.529
353.15 K, 100.22 kPa	809.674
353.15 K, 1169.9 kPa	810.881
353.15 K, 2003.6 kPa	811.814
353.15 K, 4142.5 kPa	814.153
353.15 K, 6005.5 kPa	816.142
353.15 K, 8141.3 kPa	818.365
353.15 K, 10004 kPa	820.255
353.15 K, 12008 kPa	822.24
353.15 K, 14198 kPa	824.368
353.15 K, 16142 kPa	826.212
353.15 K, 18101 kPa	828.027
353.15 K, 19917 kPa	829.683
353.15 K, 22138 kPa	831.662
353.15 K, 24034 kPa	833.323
353.15 K, 26059 kPa	835.06
353.15 K, 28105 kPa	836.785
353.15 K, 29954 kPa	838.316
373.15 K, 1259.9 kPa	791.299
373.15 K, 2065.8 kPa	792.34
373.15 K, 3870.7 kPa	794.611
373.15 K, 6198.3 kPa	797.456
373.15 K, 8095.9 kPa	799.709
373.15 K, 9917.3 kPa	801.809
373.15 K, 12114 kPa	804.274
373.15 K, 13934 kPa	806.263
373.15 K, 16020 kPa	808.493
373.15 K, 18023 kPa	810.573
373.15 K, 19927 kPa	812.508
373.15 K, 22108 kPa	814.677
373.15 K, 23970 kPa	816.486
373.15 K, 25950 kPa	818.372
373.15 K, 27874 kPa	820.167
373.15 K, 29907 kPa	822.029
393.15 K, 1097.4 kPa	770.672
393.15 K, 1998.7 kPa	772.03
393.15 K, 4084.6 kPa	775.078
393.15 K, 6214.8 kPa	778.084
393.15 K, 8059.3 kPa	780.589
393.15 K, 9988.4 kPa	783.137
393.15 K, 12134 kPa	785.871
393.15 K, 14051 kPa	788.257
393.15 K, 16078 kPa	790.683
393.15 K, 18012 kPa	792.945
393.15 K, 19811 kPa	794.994
393.15 K, 22110 kPa	797.55
393.15 K, 23923 kPa	799.514
393.15 K, 25870 kPa	801.576
393.15 K, 27974 kPa	803.747
393.15 K, 29891 kPa	805.692
413.15 K, 1099.1 kPa	749.389
413.15 K, 1960.8 kPa	750.924
413.15 K, 4038.3 kPa	754.503
413.15 K, 6026.6 kPa	757.773
413.15 K, 8189.1 kPa	761.18
413.15 K, 9852 kPa	763.702
413.15 K, 12117 kPa	767.016
413.15 K, 14168 kPa	769.904
413.15 K, 16108 kPa	772.544
413.15 K, 18095 kPa	775.165
413.15 K, 20104 kPa	777.733
413.15 K, 22152 kPa	780.275
413.15 K, 24009 kPa	782.518
413.15 K, 25996 kPa	784.857
413.15 K, 27793 kPa	786.922
413.15 K, 29815 kPa	789.193
433.15 K, 1101.8 kPa	726.984
433.15 K, 1976.7 kPa	728.858
433.15 K, 4084.4 kPa	733.177
433.15 K, 6154.5 kPa	737.18
433.15 K, 8078.7 kPa	740.731
433.15 K, 9952.6 kPa	744.032
433.15 K, 11980 kPa	747.451
433.15 K, 13969 kPa	750.677
433.15 K, 16091 kPa	753.964
433.15 K, 17961 kPa	756.765
433.15 K, 19890 kPa	759.561
433.15 K, 22082 kPa	762.624
433.15 K, 24002 kPa	765.215
433.15 K, 26049 kPa	767.899
433.15 K, 27836 kPa	770.185
433.15 K, 29993 kPa	772.844
453.15 K, 1107.5 kPa	703.102
453.15 K, 2037.8 kPa	705.548
453.15 K, 4185.3 kPa	710.874
453.15 K, 6060.4 kPa	715.218
453.15 K, 8005.2 kPa	719.474
453.15 K, 9870.3 kPa	723.328
453.15 K, 12115 kPa	727.721
453.15 K, 14139 kPa	731.482
453.15 K, 16027 kPa	734.835
453.15 K, 17928 kPa	738.09
453.15 K, 20153 kPa	741.727
453.15 K, 22071 kPa	744.756
453.15 K, 24057 kPa	747.767
453.15 K, 26029 kPa	750.661
453.15 K, 27966 kPa	753.404
453.15 K, 29817 kPa	755.955
473.15 K, 1104.4 kPa	677.2
473.15 K, 2031.3 kPa	680.289
473.15 K, 4033.8 kPa	686.456
473.15 K, 6024.4 kPa	692.111
473.15 K, 7930.8 kPa	697.122
473.15 K, 10107 kPa	702.459
473.15 K, 11931 kPa	706.639
473.15 K, 13959 kPa	711.045
473.15 K, 16004 kPa	715.254
473.15 K, 17878 kPa	718.918
473.15 K, 19844 kPa	722.599
473.15 K, 22088 kPa	726.587
473.15 K, 24074 kPa	729.989
473.15 K, 26038 kPa	733.203
473.15 K, 27840 kPa	736.071
473.15 K, 29806 kPa	739.091
